Broadly, the IC50 is the concentration needed to halve the response being measured.

The structures appear in SMILES notation. Read-outs that look alike come from different tables or passages of the source. Starred links: 1 amine or outer side, 2 acyl side, 3 side chain; linkers in the order of their positions; H or OH if unused. Positions of bridges follow the written chain, without caps; N, C: chain ends. Non-standard residues stand in square brackets, D forms with d. Residues, ends and D or L forms follow the SMILES beside them. Phe(3-Cl) = N[C@@H](Cc1cccc(Cl)c1)C(=O)O; Phe(3-Me) = Cc1cccc(C[C@H](N)C(=O)O)c1; 2Nal = N[C@@H](Cc1ccc2ccccc2c1)C(=O)O; βAsp = O=C(O)[C@H](CC(=O)[*:2])N[*:1]; Ahp(2) = CCCCC[C@H](N)C(=O)O; NMeNle = CCCC[C@H](NC)C(=O)O; Tle = CC(C)(C)[C@H](N)C(=O)O; NMeV = CN[C@H](C(=O)O)C(C)C; NHexGly = CCCCCCNCC(=O)O; Nle = CCCC[C@H](N)C(=O)O; Orn = NCCC[C@H](N)C(=O)O; Aun = NCCCCCCCCCCC(=O)O; AEEA = NCCOCCOCC(=O)O

This experiment has as its target T1, mouse VISTA (mVISTA) (Mus musculus, UniProt Q9D659).
T1 construct: expressed in transfected cells; host or cells: Human embryonic kidney 293T cells
T1 sequence (Q9D659 33-308): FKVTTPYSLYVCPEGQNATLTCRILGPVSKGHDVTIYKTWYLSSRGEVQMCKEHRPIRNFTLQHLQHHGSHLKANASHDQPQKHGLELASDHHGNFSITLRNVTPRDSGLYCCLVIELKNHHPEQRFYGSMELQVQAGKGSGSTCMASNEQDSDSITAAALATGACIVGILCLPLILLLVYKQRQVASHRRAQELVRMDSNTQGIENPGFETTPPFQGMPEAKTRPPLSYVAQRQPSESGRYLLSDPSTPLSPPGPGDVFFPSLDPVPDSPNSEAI
Nature of the experiment: Cell-Based Binding High-Content Assay For mVISTA (HC CBA mVISTA). The procedure, abridged: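 mVISTA-293T, 4,000 cells/well; cpd ± washout step; biotin-peptide 2 nM final, 30 min RT; SA-Alexa 647 30 min; formaldehyde/Hoechst fix; HCS imaging; 4PL IC50.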

Where [1] appears, read: cell-based binding high-content assay, mVISTA, the 16th table, read-out: HC CBA mVISTA IC50.

Turning to `CCCCCCN1CC(=O)N[C@@H](Cc2ccc(O)cc2)C(=O)N[C@@H](CC(C)C)C(=O)NCC(=O)N[C@@H](CCCNC(=N)N)C(=O)N[C@@H](CC(C)C)C(=O)N[C@@H](CCCCC)C(=O)N2CCC[C@H]2C(=O)N[C@@H](C(C)C)C(=O)N[C@@H](CC(=O)O)C(=O)N[C@H](C(=O)NCC(=O)O)CSCC(=O)N[C@@H](Cc2ccc3ccccc3c2)C(=O)N[C@@H](Cc2ccc(O)cc2)C(=O)N[C@@H](CC(=O)O)C1=O` [Ex 1282] ({CH2CO}-[2Nal]YD[NHexGly]YLGRL[Ahp(2)]PVDCG-OH; thioether N-14), the IC50 under setting [1] worked out at 11.7 nM.

For the compound `CCCCCCN1CC(=O)N[C@@H](Cc2ccc(O)cc2)C(=O)N[C@@H](CCCC)C(=O)NCC(=O)N[C@@H](CCCNC(=N)N)C(=O)N[C@@H](CC(C)C)C(=O)N[C@@H](CCCCC)C(=O)N2CCC[C@H]2C(=O)N[C@@H](C(C)C)C(=O)N[C@@H](CC(=O)O)C(=O)N[C@H](C(=O)N[C@@H](CO)C(=O)O)CSCC(=O)N[C@@H](Cc2cccc(C)c2)C(=O)N[C@@H](Cc2c[nH]c3ccccc23)C(=O)N[C@@H](CC(=O)O)C1=O` [compound 1425] ({CH2CO}-[Phe(3-Me)]WD[NHexGly]Y[Nle]GRL[Ahp(2)]PVDCS-OH; thioether N-14), the IC50 (the 19th table, scaffold drawing 22, read-out: HC CBA mVISTA IC50) was found to be 13.4 nM.

As for `CCCCCCN1CC(=O)N[C@@H](Cc2ccc(O)cc2)C(=O)N[C@@H](CC(C)C)C(=O)N[C@@H](CC(N)=O)C(=O)N[C@@H](CCCNC(=N)N)C(=O)N(C)[C@@H](C(C)C)C(=O)N[C@@H](CCCCC)C(=O)N2CCC[C@H]2C(=O)N[C@@H](C(C)(C)C)C(=O)N[C@@H](CO)C(=O)N[C@H](C(=O)N[C@@H](CC(=O)NCCOCCOCC(=O)N[C@@H](CC(=O)O)C(=O)NCCOCCOCC(=O)NCCCCCCCCCCC(=O)O)C(=O)O)CSCC(=O)N[C@@H](Cc2ccccc2)C(=O)N[C@@H](Cc2ccc(O)cc2)C(=O)N[C@@H](CC(=O)O)C1=O` [compound 2041] ({CH2CO}-FYD[NHexGly]YLNR[NMeV][Ahp(2)]P[Tle]SC[βAsp][AEEA]D[AEEA][Aun]-OH; thioether N-14), the IC50 (cell-based binding high-content assay, mVISTA, read-out: HC CBA miPr ISTA IC50) was found to be 29.7 nM.

Take `CCCCCCN1CC(=O)N[C@@H](Cc2ccc(O)cc2)C(=O)N[C@@H](CCCC)C(=O)N[C@@H](CC(=O)O)C(=O)N[C@@H](CCCNC(=N)N)C(=O)N(C)[C@@H](CCCC)C(=O)N[C@@H](CCCCC)C(=O)N2CCC[C@H]2C(=O)N[C@@H](C(C)(C)C)C(=O)N[C@@H](CC(=O)O)C(=O)N[C@H](C(=O)N[C@@H](CC(N)=O)C(=O)O)CSCC(=O)N[C@@H](Cc2ccccc2)C(=O)N[C@@H](Cc2c[nH]c3ccccc23)C(=O)N[C@@H](CC(=O)O)C1=O` [Example 1403] ({CH2CO}-FWD[NHexGly]Y[Nle]DR[NMeNle][Ahp(2)]P[Tle]DCN-OH; thioether N-14): the IC50 (read-out: HC CBA mVISTA IC50) came out at 32 nM.

Turning to `CCCCCCN1CC(=O)N[C@@H](Cc2ccc(O)cc2)C(=O)N[C@@H](CC(C)C)C(=O)N[C@@H](CC(N)=O)C(=O)N[C@@H](CCCNC(=N)N)C(=O)N(C)[C@@H](CCCC)C(=O)N[C@@H](CCCCC)C(=O)N2CCC[C@H]2C(=O)N[C@@H](C(C)(C)C)C(=O)N[C@@H](CO)C(=O)N[C@H](C(=O)NCC(N)=O)CSCC(=O)N[C@@H](Cc2cccc(Cl)c2)C(=O)N[C@@H](Cc2ccc(O)cc2)C(=O)N[C@@H](CC(=O)O)C1=O` [compound 1209] ({CH2CO}-[Phe(3-Cl)]YD[NHexGly]YLNR[NMeNle][Ahp(2)]P[Tle]SCG-NH2; thioether N-14), the IC50 (read-out: HC CBA mVISTA IC50) was found to be 33.2 nM.

For the compound `CCCCCCN1CC(=O)N[C@@H](Cc2ccc(O)cc2)C(=O)N[C@@H](CCCC)C(=O)N[C@@H](CC(=O)O)C(=O)N[C@@H](CCCNC(=N)N)C(=O)N[C@@H](CC(C)C)C(=O)N[C@@H](CCCCC)C(=O)N2CCC[C@H]2C(=O)N[C@@H](C(C)C)C(=O)N[C@@H](CC(=O)O)C(=O)N[C@H](C(=O)N[C@@H](CC(=O)O)C(N)=O)CSCC(=O)N[C@@H](Cc2ccc3ccccc3c2)C(=O)N[C@@H](Cc2ccc(O)cc2)C(=O)N[C@@H](CC(=O)O)C1=O` [Ex 1267] ({CH2CO}-[2Nal]YD[NHexGly]Y[Nle]DRL[Ahp(2)]PVDCD-NH2; thioether N-14), the IC50 under setting [1] amounted to 15.3 nM.

On to `CCCCCCN1CC(=O)N[C@@H](Cc2ccc(O)cc2)C(=O)N[C@@H](CCCC)C(=O)N[C@@H](CC(=O)O)C(=O)N[C@@H](CCCNC(=N)N)C(=O)N[C@@H](CC(C)C)C(=O)N[C@@H](CCCCC)C(=O)N2CCC[C@H]2C(=O)N[C@@H](C(C)C)C(=O)N[C@@H](CC(=O)O)C(=O)N[C@H](C(=O)N[C@@H](CC(=O)O)C(N)=O)CSCC(=O)N[C@@H](Cc2ccccc2)C(=O)N[C@@H](Cc2c[nH]c3ccccc23)C(=O)N[C@@H](CC(=O)O)C1=O` [Example 1352] ({CH2CO}-FWD[NHexGly]Y[Nle]DRL[Ahp(2)]PVDCD-NH2; thioether N-14), for which the IC50 (read-out: HC CBA mVISTA IC50) came out at 12.3 nM.

For the compound `CCCCCCN1CC(=O)N[C@@H](Cc2ccc(O)cc2)C(=O)N[C@@H](CCCC)C(=O)N[C@@H](CC(N)=O)C(=O)N[C@@H](CCCNC(=N)N)C(=O)N(C)[C@@H](CCCC)C(=O)N[C@@H](CCCCC)C(=O)N2CCC[C@H]2C(=O)N[C@@H](C(C)C)C(=O)N[C@@H](CC(N)=O)C(=O)N[C@H](C(=O)NCC(=O)O)CSCC(=O)N[C@@H](Cc2ccccc2)C(=O)N[C@@H](Cc2c[nH]c3ccccc23)C(=O)N[C@@H](CC(=O)O)C1=O` [Example 1381] ({CH2CO}-FWD[NHexGly]Y[Nle]NR[NMeNle][Ahp(2)]PVNCG-OH; thioether N-14), for the setting “read-out: HC CBA mVISTA IC50”, the IC50 was determined as 20.3 nM.

On to `CCCCCCN1CC(=O)N[C@@H](Cc2ccc(O)cc2)C(=O)N[C@@H](CCCCC)C(=O)N[C@@H](C)C(=O)N[C@@H](CCCNC(=N)N)C(=O)N[C@@H](CC(C)C)C(=O)N[C@@H](CCCCC)C(=O)N2CCC[C@H]2C(=O)N[C@@H](C(C)C)C(=O)N[C@@H](CO)C(=O)N[C@H](C(=O)NCC(=O)O)CSCC(=O)N[C@@H](Cc2ccccc2)C(=O)N[C@@H](Cc2ccc(O)cc2)C(=O)N[C@@H](CC(=O)O)C1=O` [Example 1042] ({CH2CO}-FYD[NHexGly]Y[Ahp(2)]ARL[Ahp(2)]PVSCG-OH; thioether N-14), for which the IC50 (293T cells expressing mouse VISTA, competition with biotinylated peptide (2 nM), read-out: HC CBA mVISTA IC50) came out at 36.3 nM.

As for `CCCCCCN1CC(=O)N[C@@H](Cc2ccc(O)cc2)C(=O)N[C@@H](CCCC)C(=O)N[C@@H](CC(N)=O)C(=O)N[C@@H](CCCNC(=N)N)C(=O)N(C)[C@@H](CCCC)C(=O)N[C@@H](CCCCC)C(=O)N2CCC[C@H]2C(=O)N[C@@H](C(C)(C)C)C(=O)N[C@@H](CO)C(=O)N[C@H](C(=O)NCC(N)=O)CSCC(=O)N[C@@H](Cc2ccccc2)C(=O)N[C@@H](Cc2c[nH]c3ccccc23)C(=O)N[C@@H](CC(=O)O)C1=O` [Example 1391] ({CH2CO}-FWD[NHexGly]Y[Nle]NR[NMeNle][Ahp(2)]P[Tle]SCG-NH2; thioether N-14), the IC50 (read-out: HC CBA mVISTA IC50) is 36.3 nM.

As for `CCCCCCN1CC(=O)N[C@@H](Cc2ccc(O)cc2)C(=O)N[C@@H](CCCC)C(=O)N[C@@H](CC(N)=O)C(=O)N[C@@H](CCCNC(=N)N)C(=O)N(C)[C@@H](CCCC)C(=O)N[C@@H](CCCCC)C(=O)N2CCC[C@H]2C(=O)N[C@@H](C(C)C)C(=O)N[C@@H](CC(=O)O)C(=O)N[C@H](C(=O)N[C@@H](CCCN)C(=O)N[C@@H](CC(N)=O)C(=O)O)CSCC(=O)N[C@@H](Cc2ccccc2)C(=O)N[C@@H](Cc2c[nH]c3ccccc23)C(=O)N[C@@H](CC(=O)O)C1=O` [compound 1129] ({CH2CO}-FWD[NHexGly]Y[Nle]NR[NMeNle][Ahp(2)]PVDC[Orn]N-OH; thioether N-14), the IC50 (read-out: HC CBA mVISTA IC50) was 13.4 nM.
